Values joined by “and” are separate entries in the source; they are usually repeats but may differ in a detail not shown here. Equal values may be shown once.
System: 598228-144-R-J1-PDC complex spheroids, viability
Assay: Anticancer human tumor 598228-144-R-J1-PDC patient-derived serous endometrial adenocarcinoma cell line growth inhibition [CLK]
Conditions: for viability, T/C: stronger effect = lower value
From the text: A high-throughput screen of multi-cell type tumor spheroids was designed to identify active combinations of […] and targeted small molecules. Complex spheroids include a stromal component modeled by human endothelial cells (HUVEC) and fibroblasts modeled by human mesenchymal stem cells (MSCs). The concentration ranges selected for each drug and investigational agent were based upon clinically achievable concentrations if the clinical Cmax of the agent was known.
Compounds. The drugs and investigational agents: cirtuvivint (SM08502; NSC835563), CC-671 (NSC850746), vemurafenib (NSC761431), tapotoclax (NSC804041), sotorasib (NSC818433), adagrasib (NSC831453), MRTX-1133 (NSC836407), BAY2416964 (NSC825713), copanlisib (NSC816437), inavolisib (NSC800729), abemaciclib (NSC768073), osimertinib (NSC779217), entinostat (NSC756642), eltanexor (KPT-8602, NSC794443), venetoclax (NSC766270), ceralasertib (NSC777638), bortezomib (NSC756655), olaparib (NSC753686), talazoparib (NSC767125), alisertib (NSC759677), peposertib (NSC802822), gemcitabine (NSC613327), 5-fluorouracil (NSC19893), SN-38 (NSC673596), oxaliplatin (NSC266046), paclitaxel (NSC125973), and doxorubicin (NSC123127), were obtained from the National Cancer Institute (NCI) Developmental Therapeutics Program Chemical Repository. The FDA-approved anticancer drug set is available from the Developmental Therapeutics Program at https://dtp.cancer.gov/organization/dscb/obtaining/available plates.htm. […] The stock solutions were prepared in dimethyl sulfoxide (DMSO, Sigma-Aldrich, St. Louis, MO, cat. D2650), except for the platinum complexes which were prepared in saline (Quality Biological, Gaithersburg, MD, cat. 114-055-101), at 800-fold the tested concentration and stored at -70 degrees C prior to their use. All drugs and investigational agents were tested over a range starting from a high concentration at or near the clinical Cmax and decreasing in half-log increments. If the clinical Cmax for an agent had not been determined, the highest concentration tested was 10 microM.
Cell Culture. All cells were maintained in an incubator at 37 degrees C and 5% CO2 with 95% humidity. The PDC lines were cultured according to standard operating procedures established by the NCI PDMR. Briefly, all PDCs were thawed and cultured in Matrigel-coated flasks prepared with a working solution of 1X Ham's F-12 nutrient mix, without supplementation (Invitrogen, Waltham, MA, cat. 11765054), 100 U/mL penicillin-streptomycin (Invitrogen, cat. 15140122), and 2.5% Matrigel (Corning Inc., Corning, NY, cat. 354248) for the first three passages. The 947758-054-R-J2-PDC line was cultured in 6B/Colon 1A media, which includes advanced DMEM/F-12 (Thermo Fisher Scientific, cat. 12634028), 10 mM HEPES (Thermo Fisher Scientific, cat. 15630080), 1X GlutaMAX supplement (Thermo Fisher Scientific, cat. 35050061), 0.1 mg/mL primocin (InvivoGen, cat. ant-pm-2), 10% defined fetal bovine serum, heat inactivated (HyClone Laboratories Inc., cat. SH30070.03HI), 1.25 mM N-Acetyl-L-cysteine (Sigma-Aldrich, cat. A9165), 10 mM nicotinamide (Sigma-Aldrich, cat. N0636), 1X B-27 supplement (Thermo Fisher Scientific, cat. 17504044), 1X N-2 supplement (Thermo Fisher Scientific, cat. 17502048), and 10 microM Y-27632 dihydrochloride (Tocris Bioscience, cat. 1254). The 876862-298-R-J1-PDC was cultured in 6E media, which includes all 6B/Colon 1A media components plus 50% L-WRN conditioned media (ATCC, cat. CRL-3276), 50 ng/mL recombinant human EGF recombinant protein (hEGF; Thermo Fisher Scientific, cat. PHG0311), 10 ng/mL recombinant human fibroblast growth factor 10 (hGFG-10; PeproTech, cat. 100-26), 1 ng/mL recombinant human fibroblast growth factor 2 (hFGF-2; PeproTech, cat. 100-18B), and 1 µM prostaglandin E2 (PGE2; Tocris, cat. 2296). The 227483-062-R1-J1-PDC line was cultured in Panc media, containing all 6E components except hFGF-2, with the addition of 500 nM SB-431542 (Selleckchem, cat. S1067) and 10 nM gastrin (Tocris, cat. 3006). […]
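Also: spheroids exposed to compounds for seven days before readout.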
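For viability, T/C in this document: 100% = DMSO vehicle control wells.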

Row | Compound | viability, T/C (compound 0.0316 µM) | viability, T/C (compound 0.1 µM) | viability, T/C (compound 0.316 µM) | viability, T/C (compound 1 µM) | viability, T/C (compound 3.16 µM) | viability, T/C (compound 10 µM) | IC50 (curve of compound) | other results
1 | C#Cc1c(F)ccc2cc(O)cc(-c3ncc4c(N5CC6CCC(C5)N6)nc(OCC56CCCN5CC(F)C6)nc4c3F)c12 (configuration not stated) | 99.8% and 98.6% | 101% and 103% | 108% and 112% | 103% and 100% | 102% and 103% | 97.9% and 102% | > 10 µM | 
2 | C=C(F)C(=O)N1CCN(c2nc(OCC3CCCN3C)nc3c2CCN(c2cccc4cccc(Cl)c24)C3)CC1CC#N (configuration not stated) | 91% and 112% | 107% and 89.4% | 97.2% and 105% | 109% and 103% | 66.6% and 68.1% | 0.83% and 0.61% | 4.23 µM and 4.3 µM | 
3 | C=CC(=O)N1CCN(c2nc(=O)n(-c3c(C)ccnc3C(C)C)c3nc(-c4c(O)cccc4F)c(F)cc23)C(C)C1 (configuration not stated) | 95% and 99.2% | 94.5% and 92.9% | 98.5% and 113% | 108% and 115% | 107% and 117% | 98% and 109% | > 10 µM | 
4 | C=CC(=O)Nc1cc(Nc2nccc(-c3cn(C)c4ccccc34)n2)c(OC)cc1N(C)CCN(C)C |  |  |  |  |  |  | > 0.3 µM | viability, T/C (compound 0.000949 µM): 106% and 86.2%; viability, T/C (compound 0.003 µM): 95.3% and 97.7%; viability, T/C (compound 0.00949 µM): 108% and 95.7%; viability, T/C (compound 0.03 µM): 93.7% and 93.5%; viability, T/C (compound 0.0949 µM): 99.3% and 92.6%; viability, T/C (compound 0.3 µM): 92.1% and 94.7%
5 | CC(=O)O[C@H]1C(=O)[C@@]2(C)[C@H]([C@H](OC(=O)c3ccccc3)[C@]3(O)C[C@H](OC(=O)[C@H](O)[C@@H](NC(=O)c4ccccc4)c4ccccc4)C(C)=C1C3(C)C)[C@]1(OC(C)=O)CO[C@@H]1C[C@@H]2O | 35.4% and 37% | 33.6% and 37% | 31% and 30.4% | 25.1% and 34.2% | 32.1% and 36.1% | 32.5% and 47.5% | < 0.0316 µM | 
6 | CC(C)CC(NC(=O)C(Cc1ccccc1)NC(=O)c1cnccn1)B(O)O (configuration not stated) |  |  |  |  |  |  | 0.0037 µM and 0.00415 µM | viability, T/C (compound 0.000949 µM): 96.3% and 107%; viability, T/C (compound 0.003 µM): 60.7% and 68.6%; viability, T/C (compound 0.00949 µM): 1.72% and 2.43%; viability, T/C (compound 0.03 µM): 2.65% and 0.78%; viability, T/C (compound 0.0949 µM): 0.47% and 0.54%; viability, T/C (compound 0.3 µM): 1.72% and 0.37%
7 | CC(CO)NC(=O)c1cc(-c2ccc(Cl)cc2)nn(-c2cnn(C)c2)c1=O (configuration not stated) | 92.9% and 110% | 89.4% and 109% | 98.2% and 116% | 98.4% and 106% | 76.6% and 111% | 89.9% and 73.9% | > 10 µM | 
8 | CC(Nc1ccc2c(c1)OCCn1cc(N3C(=O)OCC3C(F)F)nc1-2)C(N)=O (configuration not stated) | 82.3% and 77.2% | 67.8% and 63.2% | 48% and 46.3% | 46.3% and 36.9% | 33.6% and 29.7% | 28.9% and 24% | 0.418 µM and 0.264 µM | 
9 | CC1(C)CCC(CN2CCN(c3ccc(C(=O)NS(=O)(=O)c4ccc(NCC5CCOCC5)c([N+](=O)[O-])c4)c(Oc4cnc5[nH]ccc5c4)c3)CC2)=C(c2ccc(Cl)cc2)C1 | 107% and 88.7% | 89.8% and 91.9% | 89.7% and 89.9% | 104% and 105% | 101% and 94.9% | 32.4% and 26.7% | 7.36 µM and 6.72 µM | 
10 | CC1COCCN1c1cc(C2(S(C)(=N)=O)CC2)nc(-c2ccnc3[nH]ccc23)n1 (configuration not stated) | 96.7% and 86.2% | 110% and 86.8% | 98.8% and 87.7% | 72.7% and 79% | 58.1% and 61.5% | 34.3% and 34.9% | 4.04 µM and 5.18 µM | 
11 | CCCS(=O)(=O)Nc1ccc(F)c(C(=O)c2c[nH]c3ncc(-c4ccc(Cl)cc4)cc23)c1F | 95.3% and 98.7% | 119% and 92.2% | 92.5% and 90.5% | 106% and 90.1% | 89.6% and 81.8% | 55.9% and 44.1% | > 10 µM and 8.39 µM | 
12 | CCN1CCN(Cc2ccc(Nc3ncc(F)c(-c4cc(F)c5nc(C)n(C(C)C)c5c4)n3)nc2)CC1 | 92.4% and 109% | 99.5% and 96.7% | 103% and 93.4% | 92.4% and 82.3% |  |  | > 1 µM | viability, T/C (compound 0.00316 µM): 99.8% and 91.7%; viability, T/C (compound 0.01 µM): 94.1% and 88%
13 | CCc1c2c(nc3ccc(O)cc13)-c1cc3c(c(=O)n1C2)COC(=O)[C@]3(O)CC | 45% and 44.2% | 29% and 22.6% | 16.5% and 15.5% | 4.57% and 6.27% |  |  | 0.0208 µM and 0.0126 µM | viability, T/C (compound 0.00316 µM): 54.7% and 48.2%; viability, T/C (compound 0.01 µM): 61.4% and 56.1%
14 | CNC(=O)c1ccc(Nc2nc(OC3CCCC3)c3c(-c4ccc5nc(C)oc5c4)c[nH]c3n2)c(OC)c1 | 89.3% [middle of 4 runs] |  |  | 101% [middle of 12 runs] | 94.7% [middle of 12 runs] | 101% [middle of 12 runs] |  | IC50 (compound alone, run of 09/19/2023): > 10 µM
15 | COC1C=CCC(C)C(C)S(=O)(=O)NC(=O)c2ccc3c(c2)N(CC2CCC21)CC1(CCCc2cc(Cl)ccc21)CO3 (configuration not stated) | 106% and 108% | 80.2% and 85.4% | 61% and 66.5% | 55.6% and 58.4% | 56.3% and 56.4% | 34.4% and 20.1% | 1.87 µM and 1.81 µM | 
16 | COc1c(OCCCN2CCOCC2)ccc2c3n(c(=NC(=O)c4cnc(N)nc4)nc12)CCN3 | 52.9% and 45.3% | 34.8% and 27.9% | 19.3% and 14.2% | 8.63% and 7.29% |  |  | 0.0346 µM and 0.0175 µM | viability, T/C (compound 0.00316 µM): 80.5% and 77.9%; viability, T/C (compound 0.01 µM): 65.1% and 53.3%
17 | Cn1ncnc1[C@H]1c2n[nH]c(=O)c3cc(F)cc(c23)N[C@@H]1c1ccc(F)cc1 | 95.8% and 103% | 76.3% and 84.7% |  |  |  |  | > 0.1 µM | viability, T/C (compound 0.000316 µM): 111% and 95.5%; viability, T/C (compound 0.001 µM): 103% and 114%; viability, T/C (compound 0.00316 µM): 81.5% and 109%; viability, T/C (compound 0.01 µM): 83.8% and 101%
18 | NC(=O)C(=Cn1cnc(-c2cc(C(F)(F)F)cc(C(F)(F)F)c2)n1)c1cncnc1 |  |  |  |  |  |  | 0.114 µM and 0.232 µM | viability, T/C (compound 0.00949 µM): 89% and 103%; viability, T/C (compound 0.03 µM): 80.9% and 101%; viability, T/C (compound 0.0949 µM): 52.1% and 86.2%; viability, T/C (compound 0.3 µM): 32% and 38.9%; viability, T/C (compound 0.949 µM): 15% and 30.6%; viability, T/C (compound 3 µM): 18.1% and 21.5%
19 | Nc1ccccc1NC(=O)c1ccc(CNC(=O)OCc2cccnc2)cc1 | 104% and 85.5% | 94.5% and 92.8% | 78.2% and 73.5% | 35.4% and 61.1% | 20% and 20.5% | 3.38% and 10.9% | 0.713 µM and 1.28 µM | 
20 | Nc1ccn(C2OC(CO)C(O)C2(F)F)c(=O)n1 (configuration not stated) | 32.7% and 37.1% | 24.5% and 31.8% | 20.6% and 26.5% | 24.4% and 28% | 21.4% and 36.8% | 22% and 27.7% | < 0.0316 µM | 
21 | O=C(c1cc(Cc2n[nH]c(=O)c3ccccc23)ccc1F)N1CCN(C(=O)C2CC2)CC1 | 93.1% and 97.7% | 87.5% and 104% | 95.4% and 94.2% | 94.4% and 105% | 97.5% and 103% | 88% and 87.2% | > 10 µM | 
22 | O=c1[nH]cc(F)c(=O)[nH]1 | 106% and 89.1% | 94.6% and 96.1% | 101% and 88.6% | 97.6% and 99.6% | 99.3% and 88.9% | 74.2% and 77.3% | > 10 µM | 

Reference: PubChem BioAssay AID2060614 (Molecular Pharmacology Branch, DTP, NCI, 2025)
